Positions of bridges follow the written chain, without caps; N, C: chain ends. Non-standard residues stand in square brackets, D forms with d. Residues, ends and D or L forms follow the SMILES beside them. Chains are numbered I, II in the order given. βAla = NCCC(=O)O
What was measured:
beagle dogs = test: Dose range finding in dogs: clinical signs, body weight, survival; type: in vivo, dog
Protocol: The purpose of this study was to conduct DRF for SET-M33 administered by short intravenous infusion (30 min) to beagle dogs at 4.0 and 8.0 mg/kg/day (7-day treatment period). Two animals served as control group (one male, one female), and four animals were assigned to treated groups (two males, two females). The doses were determined by a preliminary study not reported here.
Naïve beagle dogs were used for the toxicity studies. The animals were supplied by Marshall US. They were 9–10 months old at the start of treatment with a body-weight range of 9.1–10 kg for the DRF study. They were 6–7 months old at the start of treatment with a body-weight range of 6.6–8.6 kg for males and 5.1–6.5 kg for females for the 4-week toxicity study. The method of administration was an intravenous short infusion with an infusion pump, alternately either into the cephalic or saphenous veins using sterile disposable cannulas and syringes. The volume of the dose of SET-M33 and control in two studies was 2, 5 and 5 mL/Kg body weight, respectively.
Viability/mortality were recorded at least twice daily. […] Injection sites were examined daily during dosing. For clinical investigation, blood obtained via jugular venepuncture from anaesthetized dogs was used to analyse blood, coagulation and biochemical parameters.

[1] = Toxicokinetics in rats, 4 weeks daily iv slow bolus; type: in vivo, rat; conditions: for AUC(0-t) / Cmax / tmax: iv
Protocol: SET-M33 was administered intravenously as a slow bolus to Sprague Dawley rats once daily for 4 weeks at 0 (vehicle only), 5, 9 and 15 mg/kg/day (control group 3 animals/sex, treated groups 6 animals/sex). Blood samples were taken on day 1 and day 28. […] Mean plasma SET-M33 exposure increased in parallel with dose in males and females. […] Mean time to maximum plasma SET-M33 concentration (tmax) was 5 min post-dose for both times and sexes as expected for intravenous bolus administration. […] On day 28, female intermediate dose AUC0-t ratio was 1.7 times the theoretical ratio.
Blood samples were drawn from the retro-orbital sinus under light isoflurane anaesthesia for determination of plasma SET-M33 levels. The samples were taken on days 1 and 28 of treatment at the following times: control group: pre-dose and 30 min; 5, 9 and 15 mg/kg/day-group: pre-dose, 5, 15, 30, 60 min and 24 h after administration. Blood samples were collected into polypropylene test tubes containing lithium heparin anticoagulant and kept at room temperature for no longer than 60 min until centrifuging (1600 g for 10 min at 2–8 °C). The plasma obtained from each sample was transferred to a fresh polypropylene test tubes, immediately frozen in dry ice and stored at − 20 °C ± 5. Plasma concentrations of SET-M33 were measured by a previously validated LC–MS/MS method. Toxicokinetic parameters were determined for mean plasma concentrations at each dose level and time point, according to the validated method and with WinNonlin software, version 6.3, in the Phoenix Suite version 1.3 (Pharsight Corporation, Mountain View, CA, USA).

[2] = Toxicokinetics in dogs, 4 weeks daily 1-h iv infusion; type: in vivo; conditions: dog; for Cmax / tmax / AUC0-24 / AUC(0-t): iv
Protocol: Plasma concentrations and the main toxicokinetic parameters of SET-M33 in plasma samples were determined in beagle dogs after intravenous administration of SET-M33 by daily 1-h-infusion at 0.5, 1.5 or 4.0 mg/kg/day or only vehicle for 4 weeks (5 animals/group/sex). Blood samples were taken on day 1 and day 28.
The time when the maximum plasma concentration occurred (Tmax) was at the end of the 1-h infusion in all animals, as expected for this route of administration. Plasma concentrations of SET-M33 at 24 h post-dose were below the limit of quantification (< 20.0 ng/ml) in all animals at all dose levels on day 1 and day 28 (not shown).
On days 1 and 28, blood samples were obtained for toxicokinetic determinations from all animals at the following times: Day 1 at the end of infusion and 5, 10, 15, 30, 60 and 180 min later; […] and 24 h ± 30 min post-dose; Day 28 at the end of infusion and 5, 10, 15, 30, 60 and 180 min later; […] and 24 h ± 30 min post-dose. Blood samples were collected into lithium heparin test tubes and kept in an ice bath until centrifuging (1600 g for 10 min at 2–8 °C). The plasma obtained from each sample was transferred to a fresh polypropylenes test tubes, immediately frozen in dry ice and stored at − 20 °C ± 5. Bioanalytical samples were analysed by a validated liquid chromatographic mass spectrometric assay. Pharmacokinetic parameters were calculated using the computer program Phoenix WinNonlin version 6.3 (Certara USA, Inc).

[3] = female, Sprague Dawley, rat, in vivo, 5 mg/kg/day
[4] = male, Sprague Dawley, rat, in vivo, 5 mg/kg/day
[5] = male, Sprague Dawley, rat, in vivo, 9 mg/kg/day
[6] = male, Sprague Dawley, rat, in vivo, 15 mg/kg/day
[7] = female, beagle, in vivo, 4 mg/kg/day
[8] = male, beagle, in vivo, 0.5 mg/kg/day
[9] = male, beagle, in vivo, 4 mg/kg/day

CC[C@H](C)[C@H](NC(=O)[C@H](CCCCN)NC(=O)[C@@H](N)CCCCN)C(=O)N[C@@H](CCCNC(=N)N)C(=O)N[C@H](C(=O)N[C@@H](CCCNC(=N)N)C(=O)N[C@@H](CC(C)C)C(=O)N[C@@H](CO)C(=O)N[C@@H](C)C(=O)NCCCC[C@H](NC(=O)[C@H](C)NC(=O)[C@H](CO)NC(=O)[C@H](CC(C)C)NC(=O)[C@H](CCCNC(=N)N)NC(=O)[C@@H](NC(=O)[C@H](CCCNC(=N)N)NC(=O)[C@@H](NC(=O)[C@H](CCCCN)NC(=O)[C@@H](N)CCCCN)[C@@H](C)CC)C(C)C)C(=O)NCCCC[C@H](NC(=O)[C@H](CCCCNC(=O)[C@H](C)NC(=O)[C@H](CO)NC(=O)[C@H](CC(C)C)NC(=O)[C@H](CCCNC(=N)N)NC(=O)[C@@H](NC(=O)[C@H](CCCNC(=N)N)NC(=O)[C@@H](NC(=O)[C@H](CCCCN)NC(=O)[C@@H](N)CCCCN)[C@@H](C)CC)C(C)C)NC(=O)[C@H](C)NC(=O)[C@H](CO)NC(=O)[C@H](CC(C)C)NC(=O)[C@H](CCCNC(=N)N)NC(=O)[C@@H](NC(=O)[C@H](CCCNC(=N)N)NC(=O)[C@@H](NC(=O)[C@H](CCCCN)NC(=O)[C@@H](N)CCCCN)[C@@H](C)CC)C(C)C)C(=O)NCCC(=O)O)C(C)C [SET-M33] (I: H-KKIRVRLSAKK[βAla]-OH / II: H-KKIRVRLSAK / III: H-KKIRVRLSA / IV: H-KKIRVRLSA; amide I:10-IV:C, I:11-II:C, II:10-III:C (inferred); N-terminus and C-terminus assumed)
survival (beagle dogs; dogs, 4.0 and 8.0 mg/kg/day 30-min iv infusion, 7 days): All animals survived the scheduled period | loss of body weight with respect to day 1 (beagle dogs; one dog, 8 mg/kg/day 30-min iv infusion, end of 7-day treatment): 9.4% | AUC(0-t) [1, 3]: 1218 ng·h/mL | Cmax [1, 3]: 4103 ng/mL | AUC(0-t) ([1]; female, Sprague Dawley, rat, in vivo, 5 mg/kg/day, AUC0-t): 663 ng·h/mL | Cmax ([1]; female, Sprague Dawley, rat, in vivo, 5 mg/kg/day, Cmax): 2110 ng/mL | AUC(0-t) [1, 4]: 938 ng·h/mL | Cmax [1, 4]: 3017 ng/mL | tmax [1, 4]: 5 min | AUC(0-t) ([1]; male, Sprague Dawley, rat, in vivo, 5 mg/kg/day, AUC0-t): 692 ng·h/mL | Cmax ([1]; male, Sprague Dawley, rat, in vivo, 5 mg/kg/day, Cmax): 2230 ng/mL | AUC(0-t) [1, 5]: 1819 ng·h/mL | Cmax [1, 5]: 5890 ng/mL | tmax [1, 5]: 5 min | AUC(0-t) ([1]; male, Sprague Dawley, rat, in vivo, 9 mg/kg/day, AUC0-t): 1430 ng·h/mL | Cmax ([1]; male, Sprague Dawley, rat, in vivo, 9 mg/kg/day, Cmax): 4560 ng/mL | AUC(0-t) [1, 6]: 2734 ng·h/mL | Cmax [1, 6]: 8170 ng/mL | tmax [1, 6]: 5 min | AUC(0-t) ([1]; male, Sprague Dawley, rat, in vivo, 15 mg/kg/day, AUC0-t): 2240 ng·h/mL | Cmax ([1]; male, Sprague Dawley, rat, in vivo, 15 mg/kg/day, Cmax): 6040 ng/mL | mean tmax ([1]; rat, in vivo): 5 min | quantifiable plasma concentrations until, post-dose ([1]; rat, in vivo): 1 h | intermediate dose AUC0-t ratio relative to the theoretical ratio ([1]; rat, in vivo, 9 mg/kg/day): 1.7 times | tmax ([1]; rat, in vivo, 5 mg/kg/day): 5 min | tmax ([1]; rat, in vivo, 9 mg/kg/day): 5 min | tmax ([1]; rat, in vivo, 15 mg/kg/day): 5 min | mean AUC0-t ratio, low vs. intermediate dose (theoretical ratio 1.8) ([1]; rats, 5 vs 9 mg/kg/day, day 1): 2 | mean Cmax ratio, low vs. intermediate dose (theoretical ratio 1.8) ([1]; rats, 5 vs 9 mg/kg/day, day 1): 1.7–2 | mean AUC0-t ratio, low vs. high dose (theoretical ratio 3) ([1]; rats, 5 vs 15 mg/kg/day, day 1): 2.9–3.2 | mean Cmax ratio, low vs. high dose (theoretical ratio 3) ([1]; rats, 5 vs 15 mg/kg/day, day 1): 2.7 | Cmax and AUC0-24 relative to values predicted for a linear relationship ([2]; in vivo, 4 mg/kg/day): approximately 2.1 times | Cmax ([2]; in vivo, 0.5 mg/kg/day): 82.8 ± 19.1 ng/mL | tmax ([2]; in vivo, 0.5 mg/kg/day): EOI | tmax ([2]; in vivo, 1.5 mg/kg/day): EOI | tmax ([2]; in vivo, 4 mg/kg/day): EOI | AUC0-24 ([2]; female, beagle, in vivo, 0.5 mg/kg/day): 45.6 ± 10.4 ng·h/mL | AUC(0-t) ([2]; female, beagle, in vivo, 0.5 mg/kg/day, AUC0-24): 76.5 ± 25.2 ng·h/mL | Cmax ([2]; female, beagle, in vivo, 0.5 mg/kg/day, Cmax): 125 ± 35 ng/mL | Cmax ([2]; female, beagle, in vivo, 1.5 mg/kg/day): 345 ± 87 ng/mL | Cmax ([2]; female, beagle, in vivo, 1.5 mg/kg/day, Cmax): 645 ± 121 ng/mL | AUC0-24 [2, 7]: 991 ± 161 ng·h/mL | Cmax [2, 7]: 1360 ± 220 ng/mL | AUC(0-t) ([2]; female, beagle, in vivo, 4 mg/kg/day, AUC0-24): 1550 ± 450 ng·h/mL | Cmax ([2]; female, beagle, in vivo, 4 mg/kg/day, Cmax): 1930 ± 350 ng/mL | AUC0-24 [2, 8]: 42.2 ± 13.3 ng·h/mL | Cmax [2, 8]: 82.4 ± 22.4 ng/mL | AUC(0-t) ([2]; male, beagle, in vivo, 0.5 mg/kg/day, AUC0-24): 83 ± 9.8 ng·h/mL | Cmax ([2]; male, beagle, in vivo, 0.5 mg/kg/day, Cmax): 149 ± 16 ng/mL | Cmax ([2]; male, beagle, in vivo, 1.5 mg/kg/day): 274 ± 110 ng/mL | AUC(0-t) ([2]; male, beagle, in vivo, 1.5 mg/kg/day, AUC0-24): 157 ± 60 ng·h/mL | Cmax ([2]; male, beagle, in vivo, 1.5 mg/kg/day, Cmax): 470 ± 218 ng/mL | AUC0-24 [2, 9]: 569 ± 99 ng·h/mL | Cmax [2, 9]: 816 ± 188 ng/mL | AUC(0-t) ([2]; male, beagle, in vivo, 4 mg/kg/day, AUC0-24): 1050 ± 150 ng·h/mL | Cmax ([2]; male, beagle, in vivo, 4 mg/kg/day, Cmax): 1490 ± 440 ng/mL | AUC(0-t) ([2]; male, beagle, plasma, 1.5 mg/kg/day, male dogs, 1.5 mg/kg/day 1-h iv infusion, day 28, plasma, LC-MS, mean ± SD, n=5, read-out: AUC0-24): 416 ± 209 ng·h/mL

Reference: paper PMC9652379, “Safety evaluations of a synthetic antimicrobial peptide administered intravenously in rats and dogs” (Scientific Reports, 2022)
